Data on eight molecules can be found in ChEMBL document CHEMBL5465560, “Selectivity Literature for EUbOPEN Chemogenomic Library” (2024).

Experiment [1] deals with T1, Phosphatidylinositol 5-phosphate 4-kinase type-2 gamma (Homo sapiens) (UniProt Q8TBX8).
T1 sequence (whole entry): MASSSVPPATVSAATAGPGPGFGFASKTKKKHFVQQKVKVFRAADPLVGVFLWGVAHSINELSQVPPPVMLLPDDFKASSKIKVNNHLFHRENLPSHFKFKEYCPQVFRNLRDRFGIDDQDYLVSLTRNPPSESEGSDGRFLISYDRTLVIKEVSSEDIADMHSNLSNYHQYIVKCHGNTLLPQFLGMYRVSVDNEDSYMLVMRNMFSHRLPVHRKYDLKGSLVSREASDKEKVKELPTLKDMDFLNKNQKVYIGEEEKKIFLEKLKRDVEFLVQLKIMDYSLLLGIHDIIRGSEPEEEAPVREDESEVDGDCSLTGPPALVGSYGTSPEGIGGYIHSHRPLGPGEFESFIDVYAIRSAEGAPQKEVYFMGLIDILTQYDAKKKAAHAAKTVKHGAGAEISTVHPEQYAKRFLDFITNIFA
The experiment in a line: Selectivity interaction (KinomeScan (DiscoverX)) EUB0000607a PIP4K2C. Particulars: at 10 µM.

The target of experiment [2] is T2, Calcium/calmodulin-dependent protein kinase type IV (Homo sapiens) (UniProt Q16566).
T2 sequence (whole entry): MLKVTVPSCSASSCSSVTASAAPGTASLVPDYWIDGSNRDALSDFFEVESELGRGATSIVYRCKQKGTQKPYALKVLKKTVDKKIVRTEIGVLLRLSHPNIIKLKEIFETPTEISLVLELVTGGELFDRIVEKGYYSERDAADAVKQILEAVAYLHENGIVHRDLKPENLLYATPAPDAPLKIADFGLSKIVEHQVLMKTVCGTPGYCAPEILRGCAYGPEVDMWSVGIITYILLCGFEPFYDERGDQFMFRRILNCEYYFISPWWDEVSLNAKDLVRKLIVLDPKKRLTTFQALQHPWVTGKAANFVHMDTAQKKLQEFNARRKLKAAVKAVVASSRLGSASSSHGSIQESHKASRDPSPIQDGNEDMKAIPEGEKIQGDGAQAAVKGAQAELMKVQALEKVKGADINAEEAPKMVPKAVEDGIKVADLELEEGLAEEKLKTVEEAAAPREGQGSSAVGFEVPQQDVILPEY
Particulars: at 10 µM.

Experiment [3] has as its target Cyclin-dependent kinase 8 (Homo sapiens, UniProt P49336). Particulars: at 10 µM.
Experiment [4] concerns the target Protein-tyrosine kinase 2-beta (Homo sapiens) (UniProt Q14289). Briefly: Selectivity interaction (ActivX KiNativ screen (kinase selectivity in THP-1 cell lysates)) EUB0000639a PTK2B. Particulars: lysate, at 0.2 µM. The experiment is classed as subcellular.
For experiment [5], the target named is Cyclin-dependent kinase-like 3 (Homo sapiens) (UniProt Q8IVW4). The experiment in a line: Selectivity interaction (KinomeScan (DiscoverX)) EUB0001049a CDKL3. Particulars: at 1 µM.
Cyclin-dependent kinase-like 3 (Homo sapiens), sequence (Q8IVW4 whole entry, looked up): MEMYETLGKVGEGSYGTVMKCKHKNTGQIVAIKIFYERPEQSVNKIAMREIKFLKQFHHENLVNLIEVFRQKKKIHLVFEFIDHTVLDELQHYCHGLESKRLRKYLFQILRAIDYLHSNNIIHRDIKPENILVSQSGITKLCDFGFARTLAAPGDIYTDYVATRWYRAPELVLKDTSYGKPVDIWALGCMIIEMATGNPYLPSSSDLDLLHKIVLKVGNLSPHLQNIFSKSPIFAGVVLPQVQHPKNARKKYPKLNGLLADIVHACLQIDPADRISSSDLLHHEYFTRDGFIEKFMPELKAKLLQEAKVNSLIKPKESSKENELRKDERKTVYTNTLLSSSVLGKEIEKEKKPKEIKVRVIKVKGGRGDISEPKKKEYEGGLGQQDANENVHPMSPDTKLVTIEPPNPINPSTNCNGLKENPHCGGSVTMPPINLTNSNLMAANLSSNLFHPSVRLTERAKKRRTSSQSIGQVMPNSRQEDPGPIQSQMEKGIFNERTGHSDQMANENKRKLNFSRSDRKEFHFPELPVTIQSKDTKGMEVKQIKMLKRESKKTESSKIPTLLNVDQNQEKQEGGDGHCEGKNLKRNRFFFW
In experiment [6] the target is Calcium/calmodulin-dependent protein kinase type 1 (Homo sapiens) (UniProt Q14012). The experiment in a line: Selectivity interaction (KinomeScan (DiscoverX)) EUB0001049a CAMK1. Particulars: at 1 µM.
Calcium/calmodulin-dependent protein kinase type 1 (Homo sapiens), sequence (Q14012 whole entry, looked up): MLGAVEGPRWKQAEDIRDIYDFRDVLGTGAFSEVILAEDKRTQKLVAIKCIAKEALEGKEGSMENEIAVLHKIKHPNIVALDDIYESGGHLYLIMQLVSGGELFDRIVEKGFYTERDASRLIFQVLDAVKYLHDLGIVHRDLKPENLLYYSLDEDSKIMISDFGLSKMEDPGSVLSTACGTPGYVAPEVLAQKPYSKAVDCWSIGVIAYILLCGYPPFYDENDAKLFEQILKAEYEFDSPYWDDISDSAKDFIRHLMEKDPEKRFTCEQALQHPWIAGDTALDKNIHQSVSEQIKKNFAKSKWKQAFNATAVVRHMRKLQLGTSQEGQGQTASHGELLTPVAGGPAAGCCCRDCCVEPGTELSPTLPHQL
The target in experiment [7] is Serine/threonine-protein kinase Chk2 (Homo sapiens) (UniProt O96017). The experiment in a line: Selectivity interaction (KinomeScan (DiscoverX)) EUB0000618a CHEK2. Particulars: at 10 µM.
Serine/threonine-protein kinase Chk2 (Homo sapiens), sequence (O96017 whole entry): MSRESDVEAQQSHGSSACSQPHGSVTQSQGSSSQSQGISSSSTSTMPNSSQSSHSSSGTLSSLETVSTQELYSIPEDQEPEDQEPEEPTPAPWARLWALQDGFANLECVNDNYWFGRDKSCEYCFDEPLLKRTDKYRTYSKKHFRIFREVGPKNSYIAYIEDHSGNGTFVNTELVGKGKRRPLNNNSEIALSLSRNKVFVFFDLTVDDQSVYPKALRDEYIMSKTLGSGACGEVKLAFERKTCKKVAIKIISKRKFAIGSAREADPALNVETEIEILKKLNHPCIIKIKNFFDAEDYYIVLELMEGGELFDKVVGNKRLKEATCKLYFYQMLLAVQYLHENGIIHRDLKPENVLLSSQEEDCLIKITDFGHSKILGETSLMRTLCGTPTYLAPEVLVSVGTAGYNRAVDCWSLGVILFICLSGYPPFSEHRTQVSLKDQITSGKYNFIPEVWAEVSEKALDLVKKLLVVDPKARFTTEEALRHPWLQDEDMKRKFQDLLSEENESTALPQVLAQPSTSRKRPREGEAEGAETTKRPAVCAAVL
The target of experiment [8] is Serine/threonine-protein kinase OSR1 (Homo sapiens) (UniProt O95747). Briefly: Selectivity interaction (KinomeScan (DiscoverX)) EUB0000092b OXSR1. Particulars: at 10 µM.
Serine/threonine-protein kinase OSR1 (Homo sapiens), sequence (O95747 2-527 limits assumed): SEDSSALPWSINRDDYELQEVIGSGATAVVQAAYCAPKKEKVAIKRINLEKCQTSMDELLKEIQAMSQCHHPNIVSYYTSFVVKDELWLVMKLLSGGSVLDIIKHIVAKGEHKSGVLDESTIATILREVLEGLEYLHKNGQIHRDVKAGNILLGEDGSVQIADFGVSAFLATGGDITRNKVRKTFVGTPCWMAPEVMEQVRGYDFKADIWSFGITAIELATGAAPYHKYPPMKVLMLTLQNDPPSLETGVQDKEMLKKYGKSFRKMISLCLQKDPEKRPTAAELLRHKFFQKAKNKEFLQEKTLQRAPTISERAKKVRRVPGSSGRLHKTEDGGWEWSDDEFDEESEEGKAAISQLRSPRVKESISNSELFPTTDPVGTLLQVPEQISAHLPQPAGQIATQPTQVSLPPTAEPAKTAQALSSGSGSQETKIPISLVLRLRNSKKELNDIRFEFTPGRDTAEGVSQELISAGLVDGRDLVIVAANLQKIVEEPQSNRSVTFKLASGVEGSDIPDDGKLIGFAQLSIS
Experiment [9] concerns the target Tyrosine-protein kinase receptor UFO (Homo sapiens) (UniProt P30530). Briefly: Selectivity interaction (KinomeScan (DiscoverX)) EUB0001079a AXL. Particulars: at 1 µM.
Experiment [10] has as its target BMP-2-inducible protein kinase (Homo sapiens) (UniProt Q9NSY1). Briefly: Selectivity interaction (KinomeScan (DiscoverX)) EUB0000229b BMP2K. Particulars: at 10 µM.
The target in experiment [11] is T3, Cyclin-dependent kinase-like 2 (Homo sapiens) (UniProt Q92772).
T3 sequence (whole entry): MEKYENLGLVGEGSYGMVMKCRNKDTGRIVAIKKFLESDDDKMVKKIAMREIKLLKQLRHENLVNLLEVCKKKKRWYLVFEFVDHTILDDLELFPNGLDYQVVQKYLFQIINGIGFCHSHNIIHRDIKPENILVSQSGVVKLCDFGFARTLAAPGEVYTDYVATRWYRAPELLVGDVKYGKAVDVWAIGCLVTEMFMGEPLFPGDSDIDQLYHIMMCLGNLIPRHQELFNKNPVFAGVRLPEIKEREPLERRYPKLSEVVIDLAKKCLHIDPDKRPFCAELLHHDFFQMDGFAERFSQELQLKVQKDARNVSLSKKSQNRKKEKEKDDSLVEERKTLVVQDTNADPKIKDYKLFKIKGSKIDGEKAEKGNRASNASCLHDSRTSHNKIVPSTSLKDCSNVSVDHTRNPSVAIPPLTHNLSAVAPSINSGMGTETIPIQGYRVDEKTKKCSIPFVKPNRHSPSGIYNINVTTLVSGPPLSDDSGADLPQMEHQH
Briefly: Selectivity interaction (KinomeScan (DiscoverX)) EUB0000229b CDKL2. Particulars: at 10 µM.

Tyrosine-protein kinase receptor UFO (Homo sapiens), sequence (P30530 whole entry): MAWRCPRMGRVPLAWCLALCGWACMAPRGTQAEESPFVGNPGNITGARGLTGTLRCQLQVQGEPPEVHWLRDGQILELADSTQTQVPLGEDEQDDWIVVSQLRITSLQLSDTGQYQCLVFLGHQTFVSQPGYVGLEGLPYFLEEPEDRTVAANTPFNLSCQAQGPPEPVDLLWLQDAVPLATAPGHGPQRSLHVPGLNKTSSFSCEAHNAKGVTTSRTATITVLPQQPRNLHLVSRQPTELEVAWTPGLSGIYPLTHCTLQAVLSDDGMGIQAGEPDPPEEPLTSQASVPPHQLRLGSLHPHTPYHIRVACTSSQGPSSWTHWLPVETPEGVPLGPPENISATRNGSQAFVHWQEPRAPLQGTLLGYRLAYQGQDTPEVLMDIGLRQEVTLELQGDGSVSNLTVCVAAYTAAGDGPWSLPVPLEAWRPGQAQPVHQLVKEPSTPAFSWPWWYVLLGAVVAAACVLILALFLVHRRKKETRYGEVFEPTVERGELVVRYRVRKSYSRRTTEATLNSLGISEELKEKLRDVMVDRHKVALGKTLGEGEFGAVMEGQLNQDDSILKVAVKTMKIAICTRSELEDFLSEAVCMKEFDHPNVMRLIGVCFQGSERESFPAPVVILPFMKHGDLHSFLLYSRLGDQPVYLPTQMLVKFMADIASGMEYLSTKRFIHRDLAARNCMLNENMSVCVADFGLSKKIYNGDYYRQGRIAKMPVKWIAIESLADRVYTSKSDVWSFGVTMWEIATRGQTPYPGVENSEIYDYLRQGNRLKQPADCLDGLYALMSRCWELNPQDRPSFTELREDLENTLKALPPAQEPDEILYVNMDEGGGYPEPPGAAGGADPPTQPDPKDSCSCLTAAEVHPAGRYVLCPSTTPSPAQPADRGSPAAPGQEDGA
BMP-2-inducible protein kinase (Homo sapiens), sequence (Q9NSY1 whole entry, looked up): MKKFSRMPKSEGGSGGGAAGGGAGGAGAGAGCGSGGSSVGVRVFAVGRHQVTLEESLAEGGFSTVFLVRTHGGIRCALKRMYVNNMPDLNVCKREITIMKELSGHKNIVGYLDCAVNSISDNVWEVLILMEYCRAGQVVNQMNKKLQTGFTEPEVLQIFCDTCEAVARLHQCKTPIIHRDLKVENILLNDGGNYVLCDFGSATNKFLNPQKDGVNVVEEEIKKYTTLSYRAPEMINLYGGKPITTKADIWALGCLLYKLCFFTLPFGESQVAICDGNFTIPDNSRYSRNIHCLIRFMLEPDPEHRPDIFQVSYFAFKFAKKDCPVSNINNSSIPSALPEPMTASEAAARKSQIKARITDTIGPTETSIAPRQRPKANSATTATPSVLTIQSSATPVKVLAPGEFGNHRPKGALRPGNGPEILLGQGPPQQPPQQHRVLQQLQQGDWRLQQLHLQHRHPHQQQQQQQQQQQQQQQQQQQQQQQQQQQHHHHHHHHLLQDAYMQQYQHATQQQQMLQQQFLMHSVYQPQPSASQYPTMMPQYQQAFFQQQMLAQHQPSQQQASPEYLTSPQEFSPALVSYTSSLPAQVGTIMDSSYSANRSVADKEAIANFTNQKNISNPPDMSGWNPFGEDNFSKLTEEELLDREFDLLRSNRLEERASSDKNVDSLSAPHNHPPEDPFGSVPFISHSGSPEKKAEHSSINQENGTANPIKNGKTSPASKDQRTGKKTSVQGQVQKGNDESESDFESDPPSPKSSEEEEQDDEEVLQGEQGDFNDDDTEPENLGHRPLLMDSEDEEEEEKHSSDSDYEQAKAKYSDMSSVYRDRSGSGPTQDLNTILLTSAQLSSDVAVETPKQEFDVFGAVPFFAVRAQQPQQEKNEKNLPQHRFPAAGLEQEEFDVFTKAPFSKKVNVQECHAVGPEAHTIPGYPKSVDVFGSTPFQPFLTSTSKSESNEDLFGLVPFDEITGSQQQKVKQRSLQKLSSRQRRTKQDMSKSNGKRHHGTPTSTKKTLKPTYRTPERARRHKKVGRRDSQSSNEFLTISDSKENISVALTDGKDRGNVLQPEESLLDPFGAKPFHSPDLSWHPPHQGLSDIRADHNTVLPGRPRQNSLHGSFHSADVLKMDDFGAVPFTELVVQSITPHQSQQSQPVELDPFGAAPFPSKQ
Cyclin-dependent kinase 8, sequence (P49336 whole entry): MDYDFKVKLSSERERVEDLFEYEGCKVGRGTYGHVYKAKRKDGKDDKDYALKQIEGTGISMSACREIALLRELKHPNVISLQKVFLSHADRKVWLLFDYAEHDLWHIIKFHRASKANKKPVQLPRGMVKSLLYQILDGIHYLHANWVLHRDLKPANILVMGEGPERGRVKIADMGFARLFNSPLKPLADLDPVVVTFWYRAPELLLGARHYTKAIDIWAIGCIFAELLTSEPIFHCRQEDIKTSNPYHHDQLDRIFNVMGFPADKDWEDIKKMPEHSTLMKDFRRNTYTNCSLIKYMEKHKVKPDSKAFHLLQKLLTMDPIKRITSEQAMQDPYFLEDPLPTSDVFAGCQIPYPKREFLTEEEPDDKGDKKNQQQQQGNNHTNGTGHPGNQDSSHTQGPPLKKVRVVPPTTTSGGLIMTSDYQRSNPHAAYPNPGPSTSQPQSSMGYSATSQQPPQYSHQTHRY

In experiment [1], `CNC(=O)Nc1ccc(-c2nc(N3CC4CCC(C3)O4)c3cnn(C4CCC5(CC4)OCCO5)c3n2)cc1` showed a % of control of 100%.

With `Cc1cc([C@@H](C)Nc2ccccc2C(=O)O)c2nc(N3CCOCC3)cc(=O)n2c1` [AZD-6482], the % of control came to 100% in [2] and 79% in experiment [3].

`CC[C@@H]1[C@H](F)C(=O)N[C@@H]1COc1nccc2cc(C(N)=O)c(OC)cc12` [ZIMLOVISERTIB]: the % of inhibition in experiment [4] was -18.6%.

`COc1cc(Nc2nc(C)cc(-c3cnn4nc(OC)ccc34)n2)cc(C(F)(F)F)c1`: the % of control in [5] turned out to be 94%; in experiment [6], 75%.

The molecule `O[C@H]1CC[C@H](Nc2ncc3nc(Nc4c(F)cc(F)cc4F)n([C@H]4CCOC4)c3n2)CC1` showed a % of control in experiment [7] of 100%.

For the molecule `CCC(=O)N1CCN(c2ccc(-n3c(=O)ccc4cnc5ccc(-c6cnc7ccccc7c6)cc5c43)cc2C(F)(F)F)CC1`, the % of control in experiment [8] turned out to be 100%.

`Nc1cnc(N2CCc3cc(S(=O)(=O)Nc4c(F)cc(Cl)cc4F)cc(N4CCCC4=O)c32)nc1` [TP-020n] displayed a % of control in experiment [9] of 69%.

For the molecule `COc1cc(N(C)c2ccnc3ccc(C(F)(F)F)cc23)cc(OC)c1OC`, the % binding in [10] came out at 99%; in experiment [11], 90%.
